The structures appear in SMILES notation. pKi: −log10 of the molar value.

Type in all cases: biochemical
The target of one assay is PKC delta kinase (Homo sapiens, UniProt Q05655). Put plainly: PKC delta kinase inhibition, coupled-enzyme (NADH absorbance) assay, Ki. The following applies: 150 μM ATP, 46 nM PKC delta kinase, 30° C.; read-out: Ki PKC delta. The method, boiled down: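 Enzyme and compound pre-equilibrated 10 min at 30° C before adding ATP to 150 μM final. Buffer: HEPES pH 7.5 (100 mM), 10 mM MgCl2, 25 mM NaCl, 0.1 mM EDTA, 0.01% Brij.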

A further assay addresses PKC theta kinase (Homo sapiens, UniProt Q04759). Put plainly: PKC theta kinase inhibition, coupled-enzyme (NADH absorbance) assay, Ki. The note with it: 240 μM ATP, 18 nM PKC theta kinase, 30° C. The essentials:
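Enzyme and compound equilibrated 10 min at 30 °C before reaction in HEPES pH 7.5 buffer with MgCl2, NaCl, EDTA and Brij. Activity tracked as NADH loss at 340 nm through a coupled system. Initial-rate data fitted by non-linear regression to give Ki.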

For the next assay, the target named is PKC alpha kinase (Homo sapiens, UniProt P17252). The assay is described as follows: PKC alpha kinase inhibition, coupled-enzyme (NADH absorbance) assay, Ki. The following applies: 130 μM ATP, 4.5 nM PKC alpha kinase, 30° C. The method, boiled down: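 Ki derived by non-linear regression of initial rates from a coupled assay tracking NADH absorbance at 340 nm over 15 min at 30 °C. ATP was 130 μM final after a 10 min compound–enzyme preincubation in HEPES pH 7.5 buffer with MgCl2, CaCl2, NaCl, EDTA and Brij.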

Sequence of PKC theta kinase (Q04759 whole entry): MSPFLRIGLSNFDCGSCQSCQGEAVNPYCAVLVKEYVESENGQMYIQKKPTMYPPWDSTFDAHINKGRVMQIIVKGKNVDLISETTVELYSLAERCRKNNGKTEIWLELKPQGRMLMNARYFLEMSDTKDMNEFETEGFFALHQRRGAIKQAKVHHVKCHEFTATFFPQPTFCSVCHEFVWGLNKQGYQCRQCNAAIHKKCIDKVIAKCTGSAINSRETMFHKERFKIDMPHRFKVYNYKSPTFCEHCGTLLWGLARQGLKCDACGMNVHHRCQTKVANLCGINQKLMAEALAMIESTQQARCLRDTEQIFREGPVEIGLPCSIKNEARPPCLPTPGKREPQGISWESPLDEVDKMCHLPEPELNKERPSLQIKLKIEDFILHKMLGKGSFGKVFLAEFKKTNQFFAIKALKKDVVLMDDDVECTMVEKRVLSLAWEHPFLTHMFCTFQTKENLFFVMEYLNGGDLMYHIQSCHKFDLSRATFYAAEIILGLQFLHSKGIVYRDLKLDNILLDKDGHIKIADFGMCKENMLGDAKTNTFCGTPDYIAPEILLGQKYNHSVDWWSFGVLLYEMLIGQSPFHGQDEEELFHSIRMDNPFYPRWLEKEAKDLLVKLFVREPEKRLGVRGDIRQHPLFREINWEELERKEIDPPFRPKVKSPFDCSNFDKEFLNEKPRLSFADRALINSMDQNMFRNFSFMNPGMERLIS
Sequence of PKC delta kinase (Q05655 whole entry): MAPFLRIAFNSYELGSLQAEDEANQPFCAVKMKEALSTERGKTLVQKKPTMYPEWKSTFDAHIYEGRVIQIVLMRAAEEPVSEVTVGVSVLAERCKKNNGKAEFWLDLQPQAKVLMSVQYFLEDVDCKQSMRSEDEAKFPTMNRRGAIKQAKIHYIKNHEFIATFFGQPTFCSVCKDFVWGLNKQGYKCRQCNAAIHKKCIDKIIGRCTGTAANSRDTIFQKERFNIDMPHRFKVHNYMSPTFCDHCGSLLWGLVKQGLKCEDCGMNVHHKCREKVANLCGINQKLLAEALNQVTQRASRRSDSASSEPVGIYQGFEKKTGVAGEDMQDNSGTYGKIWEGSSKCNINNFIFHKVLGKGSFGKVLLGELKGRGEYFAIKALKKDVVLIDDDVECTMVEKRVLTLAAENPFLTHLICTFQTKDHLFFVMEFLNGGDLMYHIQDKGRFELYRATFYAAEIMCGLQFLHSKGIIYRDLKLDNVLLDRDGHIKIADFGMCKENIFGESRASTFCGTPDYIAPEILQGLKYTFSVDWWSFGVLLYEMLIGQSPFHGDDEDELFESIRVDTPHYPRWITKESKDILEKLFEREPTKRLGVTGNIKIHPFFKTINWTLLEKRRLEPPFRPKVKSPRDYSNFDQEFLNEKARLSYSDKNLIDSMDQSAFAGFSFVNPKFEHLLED

`Fc1ccc(N2CCNC(CC(F)(F)F)C2)nc1-c1n[nH]c2ncccc12` (stereo not drawn) [Compound 206]: the values for the pKi on PKC delta kinase, on PKC theta kinase and at PKC alpha kinase were over 5.55, over 7.30 and under 5.90, respectively.

As to `FC(F)(F)c1ccc(N2CC3CCC(C2)N3)nc1-c1n[nH]c2ncccc12` [Compound 120], the pKi is over 5.55 on PKC delta kinase, over 6.30 at PKC theta kinase and under 5.90 at PKC alpha kinase.

In the case of `CC(C)C(C)(O)C1CN(c2nc(-c3n[nH]c4ncccc34)ccc2F)CCN1` (stereo not drawn) [Compound 375], the pKi is over 7.30 at PKC delta kinase, over 9.00 on PKC theta kinase and over 5.55 on PKC alpha kinase.

Consider `FC(F)(F)C1CN(c2cccc(-c3n[nH]c4ncccc34)n2)CCN1` (stereo not drawn) [Compound 25], for which the pKi on PKC delta kinase is over 5.55; on PKC theta kinase it was over 6.30; on PKC alpha kinase it was under 5.90.

With `NC(=O)C1CCCN(c2ccc(F)c(-c3n[nH]c4ncccc34)n2)C1` (stereo not drawn) [Compound 302], the pKi at PKC delta kinase is under 5.90; on PKC theta kinase it was under 6.15; on PKC alpha kinase it was under 5.90.

Take `COC(C)(C)CC1CN(c2cccc(-c3n[nH]c4ncccc34)n2)CCN1` (stereo not drawn) [Compound 101]: the pKi on PKC delta kinase is under 5.90; at PKC theta kinase, over 7.30; on PKC alpha kinase, under 5.90.

Take `CC(C)C[C@H]1CN(c2cccc(-c3n[nH]c4ncccc34)n2)C[C@H](C)N1` [Compound 10]: the pKi at PKC delta kinase was under 5.70; on PKC theta kinase it was over 5.55; at PKC alpha kinase, under 5.90.

Take `NCCC1CCCN(c2ccc(F)c(-c3n[nH]c4ncccc34)n2)C1` (stereo not drawn) [Compound 304]: the pKi was under 5.90 at PKC delta kinase, under 6.15 on PKC theta kinase and under 5.90 at PKC alpha kinase.

As for `CC(F)(F)CC1CN(c2ccc(C(F)(F)F)c(-c3n[nH]c4ncccc34)n2)CCN1` (stereo not drawn) [Compound 119], the pKi on PKC delta kinase was under 5.90; on PKC theta kinase, over 6.30; at PKC alpha kinase, under 5.90.

Turning to `NC[C@H]1CCN(c2ccc(C(F)(F)F)c(-c3n[nH]c4ncccc34)n2)C1` [Compound 354], the pKi was under 5.90 on PKC delta kinase, under 6.15 on PKC theta kinase and under 5.90 on PKC alpha kinase.

For `CC(C)C[C@H]1CN(c2ccc(C(F)(F)F)c(-c3n[nH]c4ncccc34)n2)CCCN1` [Compound 224], the values for the pKi on PKC delta kinase, on PKC theta kinase and at PKC alpha kinase were under 5.90, over 6.30 and under 5.90, respectively.

As for `FC(F)(F)c1ccc(N2CCN[C@@H](c3ccccc3)C2)nc1-c1n[nH]c2ncccc12` [Compound 129], the pKi at PKC delta kinase is over 5.55; on PKC theta kinase it was over 7.30; on PKC alpha kinase it was over 5.55.

`CC(C)(N)C1CCCN(c2ccc(F)c(-c3n[nH]c4ncccc34)n2)C1` (stereo not drawn) [Compound 310]: the pKi was over 6.30 on PKC delta kinase, over 6.30 at PKC theta kinase and over 5.55 at PKC alpha kinase.

For the molecule `CC(C)C[C@H]1CC(O)(c2cccc(-c3n[nH]c4ncccc34)n2)CCN1` (stereo partly drawn) [Compound 111], the pKi at PKC delta kinase was under 5.90; on PKC theta kinase, under 6.15; on PKC alpha kinase, under 5.90.

`CC(C)(O)[C@H]1CN(c2cccc(-c3n[nH]c4ncccc34)n2)CCN1` [Compound 136]: the pKi at PKC delta kinase is over 6.30; at PKC theta kinase, over 7.30; on PKC alpha kinase, under 5.90.

In the case of `CC(C)C[C@]1(O)CN(c2ccc(C(F)(F)F)c(-c3n[nH]c4ncccc34)n2)CC[C@H]1N` [Compound 218], the values for the pKi at PKC delta kinase, at PKC theta kinase and on PKC alpha kinase were over 6.30, over 7.30 and over 6.30, respectively.

Take `N#CC1(c2cccc(-c3n[nH]c4ncccc34)n2)CCNCC1` [Compound 234]: the pKi was over 6.30 on PKC delta kinase, over 7.30 at PKC theta kinase and over 6.30 on PKC alpha kinase.

As to `FC(F)(F)c1ccc(N2CCNC(c3ccccc3)C2)nc1-c1n[nH]c2ncccc12` (stereo not drawn) [Compound 5], the results for the pKi on PKC delta kinase, on PKC theta kinase and at PKC alpha kinase were under 5.70, over 7.30 and under 5.90, respectively.

For `NC[C@H]1CCN(c2ccc(F)c(-c3n[nH]c4ncccc34)n2)C1` [Compound 362], the pKi on PKC delta kinase is under 5.90; at PKC theta kinase, over 6.30; on PKC alpha kinase it was under 5.90.

With `CN1CCN(c2ccc(F)c(-c3n[nH]c4ncccc34)n2)CC1` [Compound 226, 3-(3-fluoro-6-(4-methylpiperazin-1-yl)pyridin-2-yl)-1H-pyrazolo[3,4-b]pyridine], the pKi is under 5.90 at PKC delta kinase, over 6.30 at PKC theta kinase and under 5.90 at PKC alpha kinase.

Turning to `CC1(C)CC1(O)C1CN(c2ccc(F)c(-c3n[nH]c4ncccc34)n2)CCN1` (stereo not drawn) [Compound 383], the pKi is under 5.90 on PKC delta kinase, over 6.30 at PKC theta kinase and under 5.90 at PKC alpha kinase.

Turning to `Clc1cnc2[nH]nc(-c3cccc(N4CCNCC4)n3)c2c1` [Compound 42], the pKi on PKC delta kinase, at PKC theta kinase and on PKC alpha kinase was over 6.30 throughout.

As for `Fc1ccc(N2CCN3CCCC3C2)nc1-c1n[nH]c2ncccc12` (stereo not drawn) [Compound 290], the pKi on PKC delta kinase was under 5.90; on PKC theta kinase it was over 6.30; at PKC alpha kinase, under 5.90.

Consider `CCC(O)(CC)C1CN(c2cccc(-c3n[nH]c4ncccc34)n2)CCN1` (stereo not drawn) [Compound 154], for which the pKi on PKC delta kinase was over 6.30; at PKC theta kinase, over 7.30; at PKC alpha kinase, over 5.55.

On to `NCC1CN(c2ccc(F)c(-c3n[nH]c4ncccc34)n2)CCO1` (stereo not drawn) [Compound 395], for which the pKi is under 5.90 on PKC delta kinase, over 6.30 at PKC theta kinase and under 5.90 at PKC alpha kinase.

For the molecule `NCC1CN(c2ccc(F)c(-c3n[nH]c4ncccc34)n2)C1` [Compound 387], the figures for the pKi on PKC delta kinase, at PKC theta kinase and on PKC alpha kinase were under 5.90, over 6.30 and under 5.90, respectively.

As for `CC(C)(O)C1CN(c2ccc(C(F)(F)F)c(-c3n[nH]c4ncccc34)n2)CCN1` (stereo not drawn) [Compound 87], the pKi was under 5.70 on PKC delta kinase, over 6.30 on PKC theta kinase and under 5.90 on PKC alpha kinase.

As for `CC(F)(F)CC1CN(c2ccc(F)c(-c3n[nH]c4ncccc34)n2)CCN1` (stereo not drawn) [Compound 155], the pKi at PKC delta kinase is over 6.30; at PKC theta kinase, over 7.30; at PKC alpha kinase, under 5.90.

For `CO[C@H]1CN(c2ccc(C(F)(F)F)c(-c3n[nH]c4ncccc34)n2)CC[C@H]1N` [Compound 384], the pKi on PKC delta kinase was under 5.90; on PKC theta kinase it was over 6.30; at PKC alpha kinase, under 5.90.

For the molecule `CC(C)C[C@H]1CN(c2ccc(F)c(-c3n[nH]c4ncccc34)n2)C[C@H](C)N1` [Compound 182], the pKi on PKC delta kinase was under 5.90; at PKC theta kinase, under 6.15; on PKC alpha kinase, under 5.90.

With `CC(C)(O)C1CN(c2cccc(-c3n[nH]c4ncccc34)n2)CCN1` (stereo not drawn) [Compound 105], the pKi at PKC delta kinase was over 6.30; at PKC theta kinase it was over 7.30; on PKC alpha kinase, under 5.90.

`CC(C)C(F)(F)C1CN(c2ccc(F)c(-c3n[nH]c4ncccc34)n2)CCN1` (stereo not drawn) [Compound 167]: the pKi at PKC delta kinase was under 5.90; on PKC theta kinase it was over 6.30; on PKC alpha kinase, under 5.90.

With `Cc1ccccc1C1CN(c2cccc(-c3n[nH]c4ncccc34)n2)CCN1` (stereo not drawn) [Compound 32], the pKi is over 6.30 on PKC delta kinase, over 7.30 at PKC theta kinase and over 6.30 at PKC alpha kinase.

Take `COC[C@H]1CN(c2cccc(-c3n[nH]c4ncccc34)n2)CCN1` [Compound 184]: the pKi on PKC delta kinase is over 6.30; at PKC theta kinase it was over 7.30; at PKC alpha kinase, under 5.90.

With `CC(C)(C(N)C1CCCN(c2ccc(F)c(-c3n[nH]c4ncccc34)n2)C1)C(F)(F)F` (stereo not drawn) [Compound 394], the pKi at PKC delta kinase was under 5.90; on PKC theta kinase it was over 6.30; on PKC alpha kinase, under 5.90.

For the molecule `Clc1cccc(C2CN(c3cccc(-c4n[nH]c5ncccc45)n3)CCN2)c1` (stereo not drawn) [Compound 18], the pKi at PKC delta kinase is over 5.55; on PKC theta kinase, over 7.30; at PKC alpha kinase, over 5.55.

Regarding `CC(C)C[C@H]1CN(c2ccc(Cl)c(-c3n[nH]c4ncccc34)n2)CCN1` [Compound 47], the figures for the pKi on PKC delta kinase, at PKC theta kinase and at PKC alpha kinase were over 6.30, over 7.30 and over 5.55, respectively.

As to `CC(C)CC1(CO)CN(c2ccc(C(F)(F)F)c(-c3n[nH]c4ncccc34)n2)CCC1N` (stereo not drawn) [Compound 411], the pKi on PKC delta kinase is over 5.55; on PKC theta kinase, over 6.30; at PKC alpha kinase, over 5.55.

Regarding `CC(C)CC1(CO)CN(c2ccc(F)c(-c3n[nH]c4ncccc34)n2)CCC1N` (stereo not drawn) [Compound 293], the pKi is over 7.30 at PKC delta kinase, over 7.30 on PKC theta kinase and over 6.30 at PKC alpha kinase.

For `CC(C)C[C@H]1CN(c2ccc(F)c(-c3n[nH]c4ncccc34)n2)C[C@@H](C)N1` [Compound 183], the pKi was over 6.30 on PKC delta kinase, over 7.30 at PKC theta kinase and over 5.55 on PKC alpha kinase.

As for `CC(C)C(N)[C@H]1CCCN(c2ccc(F)c(-c3n[nH]c4ncccc34)n2)C1` (stereo partly drawn) [Compound 270], the pKi was under 5.90 on PKC delta kinase, over 7.30 on PKC theta kinase and under 5.90 on PKC alpha kinase.

Turning to `CC(C)C[C@H]1CN(c2ccc(C(F)(F)F)c(-c3n[nH]c4ncccc34)n2)CC[C@H]1O` [Compound 91], the pKi on PKC delta kinase was under 5.70; on PKC theta kinase, over 6.30; at PKC alpha kinase, under 5.90.

As to `CC(C)C(C)(O)C1CN(c2nc(-c3n[nH]c4ncccc34)c(F)cc2F)CCN1` (stereo not drawn) [Compound 425], the pKi was over 7.30 at PKC delta kinase, over 9.00 at PKC theta kinase and over 6.30 on PKC alpha kinase.

Source of the values: patent US9193722B2, “Tri-cyclic pyrazolopyridine kinase inhibitors” (Vertex Pharmaceuticals Incorporated, priority 2008, dated 2015).
